According to patent US12552783B2, “Modulators of proteolysis and associated methods of use” (Arvinas Operations, Inc., priority 2018, dated 2026):

Target: KRas (Homo sapiens, UniProt P01116, G12C)
Test: KRas degradation in NCI-H2030 cells by Western blot, normalized to GAPDH (data of Table 14)
Assay type: cell-based
Set-up: host or cells: NCI-H2030
Conditions: for Dmax: NCI-H2030; for Percent Degradation at Indicated Concentration (μM): H2030
Summary of the method: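 Degradation of endogenous homozygous G12C KRas is measured by immunoblot after serum starvation and compound exposure at three final concentrations (0.3, 1 and 3 μM). VHL-recruiting compounds are incubated 24 h and all others 72 h. Percent loss is calculated from GAPDH-normalized KRas relative to vehicle.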

Percent Degradation at Indicated Concentration (μM): 0.3 (H2030 cells, 0.3 μM)	Percent Degradation at Indicated Concentration (μM): 1 (H2030 cells, 1 μM)	Percent Degradation at Indicated Concentration (μM): 3 (H2030 cells, 3 μM)	Dmax (H2030 cells) [%]	Percent Degradation at Indicated Concentration (μM) (0.3 μM)	Percent Degradation at Indicated Concentration (μM) (1 μM)	Percent Degradation at Indicated Concentration (μM) (3 μM)	Dmax [%]	Structure (SMILES)
C (C ≤ 35)	C (C ≤ 35)	C (C ≤ 35)	≤ 35	–	–	–	–	C=CC(=O)N1CCN(c2nc(NCCC(=O)N(C)CCOCCOCCOc3ccc4c(c3)CN(C3CCC(=O)NC3=O)C4=O)nc3c(F)c(-c4cc(O)cc5ccccc45)c(Cl)cc23)CC1 (stereo not shown) [compound 66, 3-((4-(4-acryloylpiperazin-1-yl)-6-chloro-8-fluoro-7-(3-hydroxynaphthalen-1-yl)quinazolin-2-yl)amino)-N-(2-(2-(2-((2-(2,6-dioxopiperidin-3-yl)-1-oxoisoindolin-5-yl)oxy)ethoxy)ethoxy)ethyl)-N-methylpropanamide]
C (C ≤ 35)	C (C ≤ 35)	C (C ≤ 35)	≤ 35	–	–	–	–	C=CC(=O)N1CCN(c2nc(NCCC(=O)N(C)CCOCCOCCOCCOc3ccc4c(c3)CN(C3CCC(=O)NC3=O)C4=O)nc3c(F)c(-c4cc(O)cc5ccccc45)c(Cl)cc23)CC1 (stereo not shown) [compound 67, 3-((4-(4-acryloylpiperazin-1-yl)-6-chloro-8-fluoro-7-(3-hydroxynaphthalen-1-yl)quinazolin-2-yl)amino)-N-(2-(2-(2-(2-((2-(2,6-dioxopiperidin-3-yl)-1-oxoisoindolin-5-yl)oxy)ethoxy)ethoxy)ethoxy)ethyl)-N-methylpropanamide]
–	–	–	–	C (Percent Degradation: C ≤ 35)	C (Percent Degradation: C ≤ 35)	C (Percent Degradation: C ≤ 35)	≤ 35	C=CC(=O)N1CCN(c2nc(NCCC(=O)N(C)CCOCCOCCOCCOCCOc3ccc4c(c3)CN(C3CCC(=O)NC3=O)C4=O)nc3c(F)c(-c4cc(O)cc5ccccc45)c(Cl)cc23)CC1 (stereo not shown) [compound 68, 3-((4-(4-acryloylpiperazin-1-yl)-6-chloro-8-fluoro-7-(3-hydroxynaphthalen-1-yl)quinazolin-2-yl)amino)-N-(14-((2-(2,6-dioxopiperidin-3-yl)-1-oxoisoindolin-5-yl)oxy)-3,6,9,12-tetraoxatetradecyl)-N-methylpropanamide]
–	–	–	–	C (Percent Degradation: C ≤ 35)	C (Percent Degradation: C ≤ 35)	C (Percent Degradation: C ≤ 35)	≤ 35	C=CC(=O)N1CCN(c2nc(NCCC(=O)N(C)CCOCCOc3ccc4c(c3)C(=O)N(C3CCC(=O)NC3=O)C4=O)nc3c(F)c(-c4c(O)cccc4F)c(Cl)cc23)CC1 [compound 69, 3-(((S)-4-(4-acryloylpiperazin-1-yl)-6-chloro-8-fluoro-7-(2-fluoro-6-hydroxyphenyl)quinazolin-2-yl)amino)-N-(2-(2-((2-(2,6-dioxopiperidin-3-yl)-1,3-dioxoisoindolin-5-yl)oxy)ethoxy)ethyl)-N-methylpropanamide]
–	–	–	–	C (Percent Degradation: C ≤ 35)	C (Percent Degradation: C ≤ 35)	C (Percent Degradation: C ≤ 35)	≤ 35	C=CC(=O)N1CCN(c2nc(NCCC(=O)N(C)CCOCCOCCOCCOc3ccc4c(c3)C(=O)N(C3CCC(=O)NC3=O)C4=O)nc3c(F)c(-c4c(O)cccc4F)c(Cl)cc23)CC1 [compound 73, 3-(((S)-4-(4-acryloylpiperazin-1-yl)-6-chloro-8-fluoro-7-(2-fluoro-6-hydroxyphenyl)quinazolin-2-yl)amino)-N-(2-(2-(2-(2-((2-(2,6-dioxopiperidin-3-yl)-1,3-dioxoisoindolin-5-yl)oxy)ethoxy)ethoxy)ethoxy)ethyl)-N-methylpropanamide]
–	–	–	–	C (Percent Degradation: C ≤ 35)	C (Percent Degradation: C ≤ 35)	C (Percent Degradation: C ≤ 35)	≤ 35	C=CC(=O)N1CCN(c2nc(NCCC(=O)N(C)CCOCCOCCOCCOCCOc3ccc4c(c3)C(=O)N(C3CCC(=O)NC3=O)C4=O)nc3c(F)c(-c4c(O)cccc4F)c(Cl)cc23)CC1 [compound 75, 3-(((S)-4-(4-acryloylpiperazin-1-yl)-6-chloro-8-fluoro-7-(2-fluoro-6-hydroxyphenyl)quinazolin-2-yl)amino)-N-(14-((2-(2,6-dioxopiperidin-3-yl)-1,3-dioxoisoindolin-5-yl)oxy)-3,6,9,12-tetraoxatetradecyl)-N-methylpropanamide]
–	–	–	–	C (Percent Degradation: C ≤ 35)	C (Percent Degradation: C ≤ 35)	C (Percent Degradation: C ≤ 35)	≤ 35	C=CC(=O)N1CCN(c2nc(NCCC(=O)N(C)CCOCCOc3ccc4c(c3)CN(C3CCC(=O)NC3=O)C4=O)nc3c(F)c(-c4c(O)cccc4F)c(Cl)cc23)CC1 [compound 89, 3-((4-(4-acryloylpiperazin-1-yl)-6-chloro-8-fluoro-7-((S)-2-fluoro-6-hydroxyphenyl)quinazolin-2-yl)amino)-N-(2-(2-((2-(2,6-dioxopiperidin-3-yl)-1-oxoisoindolin-5-yl)oxy)ethoxy)ethyl)-N-methylpropanamide]
–	–	–	–	C (Percent Degradation: C ≤ 35)	C (Percent Degradation: C ≤ 35)	C (Percent Degradation: C ≤ 35)	≤ 35	C=CC(=O)N1CCN(c2nc(NCCC(=O)N(C)CCOCCOCCOCCOc3ccc4c(c3)CN(C3CCC(=O)NC3=O)C4=O)nc3c(F)c(-c4c(O)cccc4F)c(Cl)cc23)CC1 [compound 93, 3-((4-(4-acryloylpiperazin-1-yl)-6-chloro-8-fluoro-7-((S)-2-fluoro-6-hydroxyphenyl)quinazolin-2-yl)amino)-N-(2-(2-(2-(2-((2-(2,6-dioxopiperidin-3-yl)-1-oxoisoindolin-5-yl)oxy)ethoxy)ethoxy)ethoxy)ethyl)-N-methylpropanamide]
–	–	–	–	C (Percent Degradation: C ≤ 35)	C (Percent Degradation: C ≤ 35)	C (Percent Degradation: C ≤ 35)	≤ 35	C=CC(=O)N1CCN(c2nc(NCCC(=O)N(C)CCOCCOCCOCCOCCOc3ccc4c(c3)CN(C3CCC(=O)NC3=O)C4=O)nc3c(F)c(-c4c(O)cccc4F)c(Cl)cc23)CC1 [compound 95, 3-(((S)-4-(4-acryloylpiperazin-1-yl)-6-chloro-8-fluoro-7-(2-fluoro-6-hydroxyphenyl)quinazolin-2-yl)amino)-N-(14-((2-(2,6-dioxopiperidin-3-yl)-1-oxoisoindolin-5-yl)oxy)-3,6,9,12-tetraoxatetradecyl)-N-methylpropanamide]
–	–	–	–	–	–	C (Percent Degradation: C ≤ 35)	–	C=CC(=O)N1CCN(c2nc(NCCC(=O)N(C)CCNc3cccc4c3C(=O)N(C3CCC(=O)NC3=O)C4=O)nc3c(F)c(-c4c(O)cccc4F)c(Cl)cc23)CC1 [compound 107, 3-(((S)-4-(4-acryloylpiperazin-1-yl)-6-chloro-8-fluoro-7-(2-fluoro-6-hydroxyphenyl)quinazolin-2-yl)amino)-N-(2-((2-(2,6-dioxopiperidin-3-yl)-1,3-dioxoisoindolin-4-yl)amino)ethyl)-N-methylpropanamide]
–	–	–	–	C (Percent Degradation: C ≤ 35)	C (Percent Degradation: C ≤ 35)	C (Percent Degradation: C ≤ 35)	≤ 35	C=CC(=O)N1CCN(c2nc(NCCC(=O)N(C)CCNc3cccc4c3C(=O)N(C3CCC(=O)NC3=O)C4=O)nc3c(F)c(-c4c(O)cccc4F)c(Cl)cc23)CC1 [compound 108, 3-(((R)-4-(4-acryloylpiperazin-1-yl)-6-chloro-8-fluoro-7-(2-fluoro-6-hydroxyphenyl)quinazolin-2-yl)amino)-N-(2-((2-(2,6-dioxopiperidin-3-yl)-1,3-dioxoisoindolin-4-yl)amino)ethyl)-N-methylpropanamide]
–	–	–	–	C (Percent Degradation: C ≤ 35)	C (Percent Degradation: C ≤ 35)	C (Percent Degradation: C ≤ 35)	≤ 35	C=CC(=O)N1CCN(c2nc(NCCC(=O)N(C)CCOCCNc3cccc4c3C(=O)N(C3CCC(=O)NC3=O)C4=O)nc3c(F)c(-c4c(O)cccc4F)c(Cl)cc23)CC1 [compound 109, 3-(((S)-4-(4-acryloylpiperazin-1-yl)-6-chloro-8-fluoro-7-(2-fluoro-6-hydroxyphenyl)quinazolin-2-yl)amino)-N-(2-(2-((2-(2,6-dioxopiperidin-3-yl)-1,3-dioxoisoindolin-4-yl)amino)ethoxy)ethyl)-N-methylpropanamide]
–	–	–	–	C (Percent Degradation: C ≤ 35)	C (Percent Degradation: C ≤ 35)	C (Percent Degradation: C ≤ 35)	≤ 35	C=CC(=O)N1CCN(c2nc(NCCC(=O)N(C)CCOCCOCCNc3cccc4c3C(=O)N(C3CCC(=O)NC3=O)C4=O)nc3c(F)c(-c4c(O)cccc4F)c(Cl)cc23)CC1 [compound 111, 3-(((S)-4-(4-acryloylpiperazin-1-yl)-6-chloro-8-fluoro-7-(2-fluoro-6-hydroxyphenyl)quinazolin-2-yl)amino)-N-(2-(2-(2-((2-(2,6-dioxopiperidin-3-yl)-1,3-dioxoisoindolin-4-yl)amino)ethoxy)ethoxy)ethyl)-N-methylpropanamide]
